Values quoted from earlier work as cited in patent US6874277B2, “Method and composition for promoting and controlling growth of plants” (priority 1988, dated 2005).
Where two headings read alike, the source gives them in different places.

Tested on: tomato variety San Jose Extra Early
Design: Dry wt increase: unit not given here
Conditions: duration 21 days

OC[C@H]1O[C@@](CO)(O[C@H]2O[C@H](CO)[C@@H](O)[C@H](O)[C@H]2O)[C@@H](O)[C@@H]1O [10% sucrose solution, sucrose]
Dry wt increase (1 spray): 16 | Mean total dry wt (1 spray, 0 sprays 188): 204 mg | Dry wt increase (2 sprays): 41 | Mean total dry wt (2 sprays): 229 mg | Dry wt increase (3 sprays): 50 | Mean total dry wt (3 sprays): 238 mg | Dry wt increase (5 sprays): 93 | Mean total dry wt (5 sprays): 281 mg | Dry wt increase (10 sprays): 163 | Mean total dry wt (10 sprays): 352 mg | Dry wt increase (20 sprays): 408 | Mean total dry wt (20 sprays): 596 mg
